This is an account of results in patent US20210338654A1 (priority 2019, published 2021).

Data set [1] concerns breakthrough migraine in patients treated with erenumab-aooe. The settings on record: human, in vivo.
A further data set deals with patients with migraine. The settings on record: in vivo.
The subject of data set [2] is migraine attack of moderate or severe intensity in adults. Format: in vivo, human.
Data set [3] relates to breakthrough migraine in patient treated with fremanezumab. The settings on record: human, in vivo.
Data set [4] has as its system breakthrough migraine in patients treated with botulinum toxin (Botox). Particulars: human, in vivo.

“And” between values parts separate entries of the source, which are not always exact repeats. Identical values can stand only once. Some results are limits rather than exact numbers.

Take `N[C@@H]1c2cccnc2[C@H](OC(=O)N2CCC(n3c(=O)[nH]c4ncccc43)CC2)CC[C@H]1c1cccc(F)c1F` [Rimegepant, [(5S,6S,9R)-5-amino-6-(2,3-difluorophenyl)-6,7,8,9-tetrahydro-5H-cyclohepta[b]pyridin-9-yl] 4-(2-oxo-3H-imidazo[4,5-b]pyridin-1-yl)piperidine-1-carboxylate]: in data set [1], the “Preference of Medication response” value is reported as “Much better, I prefer this medication”; the “Satisfaction with Medication (SM) response” value is on record as “Very satisfied”; the “acute treatment of breakthrough migraine, outcome” value is listed as “effective”; the adverse events result is given as “no adverse events”. Further, in data set [1], the “adverse events related to treatment” value is listed as “no adverse events related to treatment”; the “adverse events while receiving rimegepant alone (streptococcal pharyngitis, considered unrelated)” value is reported as 1; the “rating versus previous treatments” value is listed as “much better”; the “relief from breakthrough migraine headache” value is listed as “obtained relief from the migraine headache without the need to take other medications”. In data set [1], the “satisfaction with rimegepant at end-of-study visit” value is “very satisfied”. Moreover, in the data set with patients with migraine (human), the “incidence of serum ALT or AST >3×ULN” value came to 1.0%. Besides, in the data set with patients with migraine, the “Hy's Law cases” value is given as “no Hy's Law cases identified”, the “liver cases assessed as probably related to study drug” value is given as “no liver cases assessed as probably related to study drug”, the liver safety signal result was “no liver safety signal detected to date” and the “mean reduction in headaches/month” value worked out at 4 days. For the same molecule, the “patients with at least 30% reduction in monthly number of headache days” value in the data set on patients with migraine is “Approximately 40%”. In addition, the “N. Censored (no pain score of none by 495 minutes postdose, censored at 496 minutes)” value in data set [2] (N = 537) came out at 139. In data set [2] (in vivo), the “Freedom from most bothersome symptom at two hours postdose, Common Risk” value is on record as 41.2%; the “Freedom from most bothersome symptom at two hours postdose, Free from MBS n/N” value is 31/89 and 171/448 and 202/537; the “Freedom from most bothersome symptom at two hours postdose, Stratum Risk” value is 40.3% and 41.4%; the “Pain freedom at two hours postdose, Common Risk” value was 20.2%. Further, in data set [2] (in vivo), the “Pain freedom at two hours postdose, No Pain n/N” value was 14/89 and 91/448 and 105/537; the “Pain freedom at two hours postdose, Risk Difference Rimegepant vs Placebo” value was 7.82 and 7.36 and 7.91; the “Pain freedom at two hours postdose, Stratum Risk” value is 16.7% and 20.9%. The “migraine breakthroughs successfully treated” value in data set [3] is on record as “three migraine breakthroughs that were successfully treated”. Moreover, in data set [4], the “adverse effects from treatment” value is on record as “did not report any adverse effects”, the “need for rescue medication” value is recorded as “did not require any rescue medications or additional doses of rimegepant”, the “number of headache days (parent report)” value is recorded as “noticeable reduction in the number of headache days” and the “relief from breakthrough migraine headache” value is listed as “obtained relief from the migraine headache without the need to take other medications”. For the same molecule, in data set [4], the “resolution of Botox induced headache” value is listed as “completely resolved within an hour”, the “time to full resolution of headache” value is not above 1 h and the “time to pain relief” value is “within a half an hour”.
As for `CN(C)CCc1c[nH]c2ccc(C[C@H]3COC(=O)N3)cc12` [Zomig®, reference compound], the “effect on migraines (patient history)” value in data set [4] is recorded as “would decrease in intensity but they would not attain freedom from pain within 24 hrs”.

B1: erenumab (antibody, chains of the INN, looked up, V domains shown)
VH: QVQLVESGGGVVQPGRSLRLSCAASGFTFSSFGMHWVRQAPGKGLEWVAVISFDGSIKYSVDSVKGRFTISRDNSKNTLFLQMNSLRAEDTAVYYCARDRLNYYDSSGYYHYKYYGMAVWGQGTTVTVSS
VL: QSVLTQPPSVSAAPGQKVTISCSGSSSNIGNNYVSWYQQLPGTAPKLLIYDNNKRPSGIPDRFSGSKSGTSTTLGITGLQTGDEADYYCGTWDSRLSAVVFGGGTKLTVL
As for B1, in data set [1], the “decline in monthly migraine days (MMDs)” value is 46% and the “monthly migraine days of any pain intensity after starting erenumab” value stood at 7 MMDs.
